Here are results for three compounds from US20200181284A1, “EPIGENETIC INHIBITORS FOR SENSITIZING HEMATOLOGIC OR OTHER MALIGNANCIES TO GLUCOCORTICOID THERAPY” (UNIVERSITY OF SOUTHERN CALIFORNIA, priority 2017, published 2020).

Assay [1] concerns lung, breast and glioblastoma cancers. The following applies: dosages of 5-50 mg/kg; cited from earlier work.
Assay [2] concerns GR target genes in NALM6 cells. Put plainly: RT-qPCR of GR target genes in NALM6 cells. It is filed as cell-based, human. The following applies: NALM6 cells, KDM inhibitor. The protocol: RNA was isolated using TRIzol (Invitrogen) according to the manufacturer's instructions. Reverse transcription reaction was performed using Superscript III (ThermoFisher) according to specifications with 1 μg of total RNA as template. Quantitative PCR amplification of the resulting cDNA was performed on a Roche LightCycler 480 using SYBR green I master mix (Roche). mRNA levels were normalized to the level of b-actin mRNA.
FIGS. 40A, 40B, 40C, 40D-1, 40D-2, 40D-3, and 40D-4 show Aurora kinase B inhibitors sensitizing NALM6 cells to GC-induced cell death. As shown in FIGS. 40A and 40B, NALM6 cells were treated with the indicated dex concentration in addition to 0.75 μM ZM447439 (FIG. 40A), 16 nM AZD2811 (FIG. 40B), or equivalent volume of vehicle DMSO for 72 h, and cell survival was measured by a fluorescence metabolic assay. In each condition, the value measured with dex was normalized to the fluorescence value measured with ethanol. Percentage of survival is shown as the mean±SEM of 4 independent experiments and p-values for individual dex concentrations were calculated using a paired t-test. *p≤0.05, **p≤0.01, * * *p≤0.001. F-test comparing the two curves: p≤0.001. Insets show the EC50s that were calculated as the concentration at which half the cells remained alive, compare to vehicle controls. Error bars depict the SEM of 4 independent experiments and p-values were calculated to compare AURKB inhibitor treatment to DMSO using a paired t-test ** p≤0.01, * * *p≤0.001. […] The indicated proteins were then examined by immunoblot. As shown in FIGS. 40D-1, 40D-2, 40D-3, and 40D-4, NALM6 cells pre-treated with AZD2811 (16 nM) or DMSO for 24 h, were then treated for 8 h with 100 nM dex or ethanol. mRNA levels for the indicated GR target genes were measured by RT-qPCR and normalized to β-actin mRNA levels.
FIGS. 54A, 54B, and 54C highlight the GR Target genes that require G9a and GLP as coactivators.
For orientation: Real-time PCR tracks product formation cycle by cycle.

For assay [3], the target named is T1, endogenous G9a and GLP (Homo sapiens, UniProt Q96KQ7+Q9H9B1).
T1 construct: highlight methylation of endogenous G9a and GLP in A549 cells; endogenous in cells; host or cells: A549
Put plainly: Methylation of endogenous G9a and GLP in A549 cells. It counts as cell-based. The following applies: 2 μM, 24 h. How it is done:
(§1) Cos-7 or A549 cells were seeded on 10-cm dishes the day before transfection. Cells were transiently transfected (where indicated) using Lipofectamine 2000 (Invitrogen) with 5 μg each of the indicated plasmids according to the manufacturer's protocol. At 48 h after transfection, cells were treated (or not) with dex for the indicated time period, and cell extracts were prepared in RIPA buffer (50 mM Tris-HCl, pH 8, 150 mM NaCl, 1 mM EDTA, 1% NP-40 and 0.25% deoxycholate) supplemented with protease inhibitor tablets (Roche Molecular Biochemicals) and phosphatase inhibitors (1 mM NaF, 1 mM Na3VO4 and 1 mM β-glycerophosphate). Protein extracts were incubated with 1 μg of the indicated primary antibodies overnight at 4° C. with shaking. Protein A/G Plus Agarose (Santa Cruz sc-2003) beads were added and the mixture was incubated 2 hr at 4° C. The immunoprecipitates were separated on SDS-PAGE. […] In immunoprecipitation experiments 3% of the input of each sample was analyzed by immunoblot using the antibodies listed.
The results as shown in FIGS. 24E-1 and 24E-2 highlight methylation of endogenous G9a and GLP in A549 cells. […] Western-Blot quantification was determined relative to input using ChemiDoc MP (Biorad) to measure chemiluminescence from the immunoblots, and the ratio of the IP signal to the input signal was calculated for each sample.

In assay [4] the target is T2, hG9a (Homo sapiens, UniProt Q96KQ7).
T2 construct: transfected with a plasmid encoding full length HA-hG9a and treated with 2 μM UNC0646; expressed in transfected cells; host or cells: Cos-7
T2 sequence (Q96KQ7 1-280): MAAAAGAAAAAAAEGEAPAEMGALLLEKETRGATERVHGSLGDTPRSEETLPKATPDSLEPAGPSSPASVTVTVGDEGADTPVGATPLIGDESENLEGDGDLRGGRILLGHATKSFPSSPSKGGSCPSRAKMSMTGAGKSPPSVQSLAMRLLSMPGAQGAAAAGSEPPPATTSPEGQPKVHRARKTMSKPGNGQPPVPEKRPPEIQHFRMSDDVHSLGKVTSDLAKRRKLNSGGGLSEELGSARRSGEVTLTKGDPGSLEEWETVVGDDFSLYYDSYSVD
Put plainly: Methylation of HA-hG9a in Cos-7 cells (pan met-K immunoprecipitation/immunoblot). It counts as cell-based, African green monkey. The following applies: Cos-7 cells expressing HA-hG9a N, 2 μM, 24 h.
Description: Cells were transiently transfected (where indicated) using Lipofectamine 2000 (Invitrogen) with 5 μg each of the indicated plasmids according to the manufacturer's protocol. […] Protein extracts were incubated with 1 μg of the indicated primary antibodies overnight at 4° C. with shaking. Protein A/G Plus Agarose (Santa Cruz sc-2003) beads were added and the mixture was incubated 2 hr at 4° C. The immunoprecipitates were separated on SDS-PAGE. Immunoblotting was conducted with primary antibodies against HA epitope (3F10 Roche Applied Science); G9a (G6919), FLAG (F1804), (3-actin (A5441), or GAPDH (G9545) from Sigma; aurora kinase B (ab2254), HP1γ (ab10480), HP1γ (ab56978), phospho-593-HP1γ (ab45270) or pan methyllysine (ab23366) from Abcam; GR (sc-8992) from Santa Cruz; GLP (09-078), or pan phospho-threonine (AB1607) from Millipore; phospho-S211-GR (#4161), H3K9me3 (#13969), H3S10ph (#53348), Histone H3 (#4499) from Cell signaling; or E-cadherin (610182) from BD transduction laboratories. Secondary antibodies from Santa Cruz Biotechnology (anti-rat) and Promega (anti-rabbit and anti-mouse) were used for chemiluminescence detection using Super Signal West Dura (Thermo Scientific) for proteins with low expression levels and ECL prime detection reagent (Amersham) for all other proteins according to the manufacturers' instructions. In immunoprecipitation experiments 3% of the input of each sample was analyzed by immunoblot using the antibodies listed.
Lysates were immunoprecipitated (IP) with pan met-K antibody and immunoblotted with HA antibody (top), or the usage of the two antibodies was reversed (bottom). Expression of HA-tagged proteins and β-actin (loading control) in the unfractionated extracts is shown at the bottom (Input). For FIG. 17D, Cos-7 cells were transfected with a plasmid encoding full length HA-hG9a and treated with 2 μM UNC0646 or vehicle DMSO for 24 h. Lysates were immunoprecipitated with pan met-K antibody and immunoblotted with HA antibody (top), or the usage of the two antibodies was reversed (bottom).
Lysates were immunoprecipitated with pan met-K antibody and immunoblotted with HA antibody (top).

In assay [5] the test system is interaction between HP1γ and G9a. Briefly: Co-immunoprecipitation of HA-hG9a with HP1γ in Cos-7 cells. It counts as cell-based, African green monkey. The following applies: 2 μM, 24 h. The protocol:
as §1, with “listed. […]” for “listed.”

Assay [6] deals with G9a and GLP phosphorylation. Briefly: Phosphorylation of HA-hG9a or HA-hGLP in Cos-7 cells (pan ph-T immunoprecipitation). Particulars: 2 μM, 24 h. It counts as cell-based, monkey. The protocol:
as §1, with “listed. […]” for “listed.”

As for `Clc1ccc(N/N=C(\c2ccccc2)c2ccccn2)nc1` [JIB-04, 5-chloro-N-[(E)-[phenyl(pyridin-2-yl)methylidene]amino]pyridin-2-amine], in assay [1], the “efficacy in mouse xenograft models” value is “effective”. For the same compound, in assay [2], the “dex-induced expression of FKBPS (independent of G9a and GLP)” value was “no effect”; the “dex-induced expression of G9a/GLP-dependent GR target genes (TXNIP, GILZ, and NFKBIA)” value is “enhanced”.

With `COc1cc2c(NC3CCN(C4CCCCC4)CC3)nc(N3CCCN(C(C)C)CC3)nc2cc1OCCCN1CCCCC1` [UNC0646], in assay [3], the “endogenous level of G9a and GLP” value is recorded as “increased”; the “proportion of G9a and GLP that was methylated” value is “decreased substantially”. Further, the “methylation of the N-terminal G9a fragment” value in assay [4] was “decreased”.

For `COc1cc2c(Nc3ccc(NC(=O)c4ccccc4)cc3)ncnc2cc1OCCCN1CCOCC1` [ZM447439, N-[4-[[6-methoxy-7-(3-morpholin-4-ylpropoxy)quinazolin-4-yl]amino]phenyl]benzamide], the “interaction between HP1γ and G9a” value in assay [5] is given as “increased”. In addition, in assay [6], the “G9a and GLP phosphorylation signals” value is reported as “decreased”.
